Results reported in patent publication US20130029967A1, “Fused Imidazo [3,2 - D] Pyrazines as P13 Kinase Inhibitors” (Centro Nacional de Investigaciones Oncologicas (CNIO), priority 2009, published 2013).
Where two headings read alike, the source gives them in different places.

Experiments:
PI3K (p110α/p85α) = target: T1, PI3K (p110α/p85α) (Homo sapiens, UniProt P42336); assay: PI3K activity assay (ADP Hunter Plus); type: biochemical; conditions: quantitative results, read-out: PI3K α IC50
T1 construct: purchased Carna Biosciences 07CBS-0402A
T1 sequence (P42336 whole entry): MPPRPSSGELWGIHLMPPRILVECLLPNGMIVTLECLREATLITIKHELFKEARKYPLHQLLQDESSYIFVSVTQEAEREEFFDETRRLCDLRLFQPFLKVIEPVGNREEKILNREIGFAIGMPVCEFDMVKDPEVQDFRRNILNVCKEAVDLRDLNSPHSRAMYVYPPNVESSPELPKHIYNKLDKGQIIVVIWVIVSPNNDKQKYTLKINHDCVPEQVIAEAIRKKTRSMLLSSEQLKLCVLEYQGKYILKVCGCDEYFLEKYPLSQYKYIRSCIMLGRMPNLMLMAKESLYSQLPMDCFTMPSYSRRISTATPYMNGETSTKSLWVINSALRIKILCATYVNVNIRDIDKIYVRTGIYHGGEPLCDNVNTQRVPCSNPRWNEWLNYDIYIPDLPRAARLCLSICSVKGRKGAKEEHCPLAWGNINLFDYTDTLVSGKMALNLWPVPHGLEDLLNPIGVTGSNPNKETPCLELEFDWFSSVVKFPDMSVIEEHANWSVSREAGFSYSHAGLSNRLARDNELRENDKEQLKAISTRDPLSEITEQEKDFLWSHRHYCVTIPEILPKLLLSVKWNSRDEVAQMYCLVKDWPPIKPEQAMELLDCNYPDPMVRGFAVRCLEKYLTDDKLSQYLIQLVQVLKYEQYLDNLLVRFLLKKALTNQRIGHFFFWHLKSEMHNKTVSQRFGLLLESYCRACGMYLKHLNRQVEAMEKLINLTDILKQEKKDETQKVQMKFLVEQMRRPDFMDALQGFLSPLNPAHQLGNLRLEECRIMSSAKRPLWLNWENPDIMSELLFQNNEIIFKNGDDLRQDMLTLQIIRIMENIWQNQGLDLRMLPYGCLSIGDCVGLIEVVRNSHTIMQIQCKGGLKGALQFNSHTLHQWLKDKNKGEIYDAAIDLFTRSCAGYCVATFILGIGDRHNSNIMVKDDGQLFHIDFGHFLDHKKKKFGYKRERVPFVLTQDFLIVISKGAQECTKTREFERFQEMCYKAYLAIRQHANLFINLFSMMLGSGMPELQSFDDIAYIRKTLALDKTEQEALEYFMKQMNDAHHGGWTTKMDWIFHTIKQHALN
T1 sequence (P27986 whole entry partner): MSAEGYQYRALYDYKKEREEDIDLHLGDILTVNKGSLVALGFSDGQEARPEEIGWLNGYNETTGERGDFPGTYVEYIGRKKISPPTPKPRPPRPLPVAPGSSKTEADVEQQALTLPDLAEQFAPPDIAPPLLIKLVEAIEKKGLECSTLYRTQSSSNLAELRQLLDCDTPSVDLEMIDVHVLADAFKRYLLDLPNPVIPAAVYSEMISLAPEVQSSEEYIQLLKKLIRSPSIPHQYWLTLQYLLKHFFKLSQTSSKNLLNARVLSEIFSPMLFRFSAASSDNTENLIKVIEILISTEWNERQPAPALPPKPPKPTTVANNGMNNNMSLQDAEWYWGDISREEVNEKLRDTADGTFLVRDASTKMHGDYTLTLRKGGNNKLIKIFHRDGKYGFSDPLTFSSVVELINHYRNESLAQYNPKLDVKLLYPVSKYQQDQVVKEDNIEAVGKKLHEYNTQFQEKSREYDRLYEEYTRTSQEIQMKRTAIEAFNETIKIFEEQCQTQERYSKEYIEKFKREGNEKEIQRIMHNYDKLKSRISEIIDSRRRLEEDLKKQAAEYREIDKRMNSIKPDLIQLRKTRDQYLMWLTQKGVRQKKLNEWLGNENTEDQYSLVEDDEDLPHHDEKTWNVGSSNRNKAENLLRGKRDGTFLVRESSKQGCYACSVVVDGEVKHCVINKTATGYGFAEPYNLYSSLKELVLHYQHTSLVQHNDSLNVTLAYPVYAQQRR
Description: The kinase activity was measured by using the commercial ADP Hunter™ Plus assay available from DiscoveRx (#33-016), which is a homogeneous assay to measure the accumulation of ADP, a universal product of kinase activity. […] Reaction was carried out for 1 hour at 25° C. Reagent A and B were sequentially added to the wells and plates were incubated for 30 min at 37° C. […] Values were normalized against the control activity included for each enzyme (i.e., 100% PI3 kinase activity, without compound). These values were plot against the inhibitor concentration and were fit to a sigmoid dose-response curve by using the Graphed software.

phospho-Ser-473-Akt = assay: AKT phosphorylation inhibition, Western blot analysis; type: cell-based; conditions: cellular p-AKT
Description: (§1) Cell culture: The cell lines were obtained from the American Type Culture Collection (ATCC). U2OS (human osteosarcoma) was cultured in Dulbecco's modified Eagle's medium (DMEM). PC3 (human prostate carcinoma), MCF7 (human breast cardinoma), HCT116 (human colon carcinoma), […], U251 (human glyoblastoma) were grown in RPMI. All media were supplemented with 10% fetal bovine serum (FBS) (Sigma) and antibiotics-antimycotics. Cell were maintained in a humidified incubator at 37° C. with 5% CO2 and passaged when confluent using trypsin/EDTA.
AKT phosphorylation Inhibition Western Blot Analysis: Subconfluent cells were incubated under different conditions and washed twice with TBS prior to lysis. Lysis buffer was added containing 50 mM Tris HCl, 150 mM NaCl, 1% NP-40, 2 mM Na3VO4, 100 mM NaF, 20 mM Na4P2O7 and protease inhibitor cocktail (Roche Molecular Biochemicals). The proteins were resolved on 10% SDS-PAGE and transferred to nitrocellulose membrane (Schleicher & Schuell, Dassel, Germany). The membranes were incubated overnight at 4° C. with antibodies specific for Akt, phospho-Ser-473-Akt (Cell Signaling Technology) and α-tubulin (Sigma), they were washed and then incubated with IRDye800 conjugated anti-mouse and Alexa Fluor 680 goat anti-rabbit IgG secondary antibodies. The bands were visualized using an Odyssey infrared imaging system (Li-Cor Biosciences).

[1] = tested on: phospho-AKT (Ser473) in Osteosarcoma U2OS cells; assay: PI3K cellular activity, ELISA (phospho-AKT Ser473); type: cell-based; conditions: Homo sapiens, cellular p-AKT
Description: as §1
Activity was measured as endogenous levels of phospho-AKT (Ser473) protein. Osteosarcoma U2OS cells were plated in 96 Poly-D-Lysine coating tissue culture plates (18.000 cells/well). After the treatment with serial dilutions of the compound during 3 h, the cells were fixed directly in the wells with 4% paraformaldehide. After fixing, individual wells went through the same series of steps used for a conventional immunoblot: including blocking with 5% BSA, incubation with 1/1000 of primary antibody-AKT ([…]) in PBS containing 5% BSA at 4° C. overnight (Cell Signalling), washing and incubation with second antibody HRP-anti-mouse IgG for 1 h at RT (Amersham). After the addition of SuperSignal ELISA Femto maximum sensitivity chemiluminescent substrate (Pierce) the results were read in a luminescence plate reader (Victor).

| SMILES | IC50 (PI3K (p110α/p85α); PI3Kα) [nM] | IC50 (phospho-Ser-473-Akt) [nM] | IC50 [1] [nM] | IC50 (PI3K (p110α/p85α)) [nM] |
| --- | --- | --- | --- | --- |
| c1cc(-c2cn3c4c(nc3c(N3CCOCC3)n2)CCNC4)c2cn[nH]c2c1 [2-04] | 755 | 56 |  |  |
| CCOC(=O)N1CCc2nc3c(N4CCOCC4)nc(-c4cnc(N)nc4)c(Cl)n3c2C1 [2-32] | 84 | 78 |  |  |
| COc1ccccc1NC(=O)N1CCc2nc3c(N4CCOCC4)nc(-c4cnc(N)nc4)cn3c2C1 [2-72] | 47 |  | 473 |  |
| CN(C)c1ccc(NC(=O)N2CCc3nc4c(N5CCOCC5)nc(-c5cnc(N)nc5)cn4c3C2)cc1 [2-74] | 74 |  | 888 |  |
| Nc1ncc(-c2cn3c4c(nc3c(N3CCOCC3)n2)CCN(C(=O)NCc2cccc(F)c2)C4)cn1 [2-83] | 25 |  | 497 |  |
| Nc1ncc(-c2cn3c4c(nc3c(N3CCOCC3)n2)CCN(C(=O)NCc2ccccc2F)C4)cn1 [2-90] | 46 |  | 302 |  |
| Nc1ncc(-c2cn3c4c(nc3c(N3CCOCC3)n2)CCN(C(=O)Nc2cccc(F)c2)C4)cn1 [2-91] | 75 |  | 443 |  |
| COc1cccc(NC(=O)N2CCc3nc4c(N5CCOCC5)nc(-c5cnc(N)nc5)cn4c3C2)c1 [2-93] | 64 |  | 415 |  |
| Cc1ccc(CNC(=O)N2CCc3nc4c(N5CCOCC5)nc(-c5cnc(N)nc5)cn4c3C2)cc1 [2-94] | 37 |  | 260 |  |
| COc1ccc(CNC(=O)N2CCc3nc4c(N5CCOCC5)nc(-c5cnc(N)nc5)cn4c3C2)cc1 [2-96] | 28 |  | 385 |  |
| COc1cccc(CNC(=O)N2CCc3nc4c(N5CCOCC5)nc(-c5cnc(N)nc5)cn4c3C2)c1 [2-97] | 38 |  | 491 |  |
| COc1ccc(NC(=O)N2CCc3nc4c(N5CCOCC5)nc(-c5cnc(N)nc5)cn4c3C2)cc1 [2-102] | 70 |  | 541 |  |
| Cc1ccc(NC(=O)N2CCc3nc4c(N5CCOCC5)nc(-c5cnc(N)nc5)cn4c3C2)cc1 [2-105] | 44 |  | 345 |  |
| COc1ccc(CN2CCc3c(nc4c(N5CCOCC5)nc(-c5cnc(N)nc5)cn34)C2=O)cc1 [5-06] |  | 174 |  | 45 |
| Nc1ncc(-c2cn3c4c(nc3c(N3CCOCC3)n2)CCC(=O)N4)cn1 [5-11] |  |  | 475 | 14 |
| COCCN1CCc2c(nc3c(N4CCOCC4)nc(-c4cnc(N)nc4)c(Cl)n23)C1 [6-09] |  | 180 |  | 121 |
| CS(=O)(=O)N1CCc2c(nc3c(N4CCOCC4)nc(-c4cnc(N)nc4)c(Cl)n23)C1 [6-17] |  |  | 246 | 33 |
| COc1ccccc1NC(=O)N1CCc2c(nc3c(N4CCOCC4)nc(-c4cnc(N)nc4)cn23)C1 [6-33] |  |  | 188 | 25 |
| Nc1ncc(-c2cn3c4c(nc3c(N3CCOCC3)n2)CN(C(=O)Nc2ccccc2F)CC4)cn1 [6-36] |  |  | 250 | 21 |
| CN(C)c1ccc(NC(=O)N2CCc3c(nc4c(N5CCOCC5)nc(-c5cnc(N)nc5)cn34)C2)cc1 [6-39] |  |  | 187 | 17 |
| Nc1ncc(-c2cn3c4c(nc3c(N3CCOCC3)n2)CN(C(=O)NCc2ccccc2F)CC4)cn1 [6-44] |  |  | 139 | 7 |
| Nc1ncc(-c2cn3c4c(nc3c(N3CCOCC3)n2)CN(C(=O)Nc2cccc(F)c2)CC4)cn1 [6-45] |  |  | 101 | 14 |
| COc1ccccc1CNC(=O)N1CCc2c(nc3c(N4CCOCC4)nc(-c4cnc(N)nc4)cn23)C1 [6-46] |  |  | 112 | 7 |

Next, values leading:

| IC50 (PI3K (p110α/p85α); PI3Kα) [nM] | IC50 (phospho-Ser-473-Akt) [nM] | IC50 [1] [nM] | IC50 (PI3K (p110α/p85α)) [nM] | SMILES |
| --- | --- | --- | --- | --- |
| 69 | 245 |  |  | Nc1ncc(-c2cn3c4c(nc3c(N3CCOCC3)n2)CCN(Cc2ccccn2)C4)cn1 [2-18] |
|  |  | 1230 |  | CCNC(=O)N1CCc2nc3c(N4CCOCC4)nc(-c4cnc(N)nc4)cn3c2C1 [2-38] |
| 9 |  | 95 |  | CS(=O)(=O)N1CCc2nc3c(N4CCOCC4)nc(-c4cnc(N)nc4)c(Cl)n3c2C1 [2-49] |
| 62 |  | 564 |  | CCCNC(=O)N1CCc2nc3c(N4CCOCC4)nc(-c4cnc(N)nc4)cn3c2C1 [2-53] |
| 77 |  | 853 |  | CC(C)S(=O)(=O)N1CCc2nc3c(N4CCOCC4)nc(-c4cnc(N)nc4)cn3c2C1 [2-59] |
| 57 |  | 546 |  | Nc1ncc(-c2cn3c4c(nc3c(N3CCOCC3)n2)CCN(C(=O)NC2CCCC2)C4)cn1 [2-66] |
| 23 |  | 450 |  | Nc1ncc(-c2cn3c4c(nc3c(N3CCOCC3)n2)CCN(S(=O)(=O)C2CCCC2)C4)cn1 [2-69] |
| 29 |  | 236 |  | CCS(=O)(=O)N1CCc2nc3c(N4CCOCC4)nc(-c4cnc(N)nc4)cn3c2C1 [2-73] |
| 54 |  | 344 |  | COCCS(=O)(=O)N1CCc2nc3c(N4CCOCC4)nc(-c4cnc(N)nc4)cn3c2C1 [2-85] |
| 95 |  | 763 |  | CC(C)CS(=O)(=O)N1CCc2nc3c(N4CCOCC4)nc(-c4cnc(N)nc4)cn3c2C1 [2-109] |
|  | 318 |  | 88 | CN1CCc2c(nc3c(N4CCOCC4)nc(-c4cnc(N)nc4)cn23)C1 [6-02] |
|  | 532 |  | 50 | COCCN1CCc2c(nc3c(N4CCOCC4)nc(-c4cnc(N)nc4)cn23)C1 [6-03] |
|  |  |  | 22 | CCS(=O)(=O)N1CCc2c(nc3c(N4CCOCC4)nc(-c4cnc(N)nc4)cn23)C1 [6-20] |
|  |  |  | 100 | CC(C)NC(=O)N1CCc2c(nc3c(N4CCOCC4)nc(-c4cnc(N)nc4)cn23)C1 [6-22] |
|  |  | 218 | 29 | Nc1ncc(-c2cn3c4c(nc3c(N3CCOCC3)n2)CN(C(=O)C2CC2)CC4)cn1 [6-24] |
|  |  | 137 | 44 | CC(C)C(=O)N1CCc2c(nc3c(N4CCOCC4)nc(-c4cnc(N)nc4)cn23)C1 [6-26] |
|  |  |  | 18 | Nc1ncc(-c2cn3c4c(nc3c(N3CCOCC3)n2)CN(S(=O)(=O)C2CCOCC2)CC4)cn1 [6-28] |
|  |  |  | 31 | N#CCCCS(=O)(=O)N1CCc2c(nc3c(N4CCOCC4)nc(-c4cnc(N)nc4)cn23)C1 [6-29] |
|  |  |  | 79 | COCCC(=O)N1CCc2c(nc3c(N4CCOCC4)nc(-c4cnc(N)nc4)cn23)C1 [6-35] |
